Patent US8076486B2, “Heteroaryl-substituted arylaminopyridine derivatives as MEK inhibitors” (Merck Serono S.A., priority 2006, dated 2011)

Assays:
human MEK1 = human MEK1 (Homo sapiens, UniProt Q02750, S218E/S222E); test: MEK-1 Enzyme Assay (LANCE-HTRF); format: biochemical; conditions: MEK-1 EE, ERK-2K52A substrate, 9 uM ATP, 1.5 hrs
Description: Assay 1: MEK-1 Enzyme Assay (LANCE-HTRF)
Inhibition of human MEK1 kinase activity was monitored with a homogenous, fluorescence-based assay. The assay uses time resolved fluorescence resonance energy transfer to probe for phosphorylation of ERK1 by MEK1. The detailed procedure is described in the following:
Constititutively active MEK-1 EE (150 ng/well) and ERK-2K52A (110 ng/well) were incubated in black, 384 well Optiplates (Perkin Elmer) for 1.5 hrs at room temperature, in the presence of increasing concentrations of inhibitors. The total reaction volume was 50 ul. The inhibitors were serial diluted in kinase buffer (9 uM ATP, 50 mM Tris-Hcl pH 8.0, 10 mM MgCl2, 1 mM DTT and 100 uM Na3VO4), to a final concentration of 1% DMSO. At the end of the incubation, the enzyme reaction was quenched by adding 50 ul of assay buffer containing 50 mM Tris-Hcl, 50 mM EDTA, 0.1% BSA and a mixture of 1.25 ug/mL europium labeled anti-phosphotyrosine mAb (Perkin Elmer) and 5 ug/mL of allophycocyanin labeled anti-GST antibody (CIS-US). Plates were agitated on a plate shaker for 30 minutes and the phosphorylation of the ERK-2K52A substrate was measured by homogeneous time resolved fluorescence (HTRF) at 340 nm excitation and […] emission filters on the VICTOR V fluorescence plate reader. Phosphorylation is expressed as a ratio of 665 nM signal×10,000/615 nM signal. To assess the inhibitory potential of the compounds, IC50-values were determined.

Murine colon C26 cells = test: Tumor Cell Proliferation Assay (ATP Lite), C26; format: cell-based; conditions: Mus musculus, 96 h, 4 days, ATPlite
Description: (§1) Assay 2: Tumor Cell Proliferation Assays (ATP Lite)
(§2) Murine colon C26 (1500 cells/well), human melanoma A375 (2000 cells/well), or human pancreatic MiaPaCa-2 cells (2000 cells/well) were plated in white, 96 well plates (Corning) in growth media (DMEM with 10% fetal bovine serum, 2 mM glutamine for C26 and MiaPaCa-2, and RPMI with 10% fetal bovine serum, 2 mM glutamine for A375) and cultured overnight at 37° C. in a humidified, 5% CO2 incubator. Inhibitors were serially diluted in 100% DMSO and subsequently added to the cells, in growth media, to reach a final concentration of 0.25% DMSO. The cells were incubated for 4 days in the presence of the test compounds and the proliferation was quantitated using the ATPlite cell proliferation kit (Packard).

[1] = tested on: human melanoma A375 cells; test: Tumor Cell Proliferation Assay (ATP Lite), A375; format: cell-based; conditions: A-375, 96 h, 4 days, ATPlite
Description: as §1, §2

[2] = tested on: human pancreatic MiaPaCa-2 cells; test: Tumor Cell Proliferation Assay (ATP Lite), MiaPaCa-2; format: cell-based; conditions: MIA PaCa-2, 96 h, 4 days, ATPlite, read-out: MiaPaCa2 cell proliferation IC50
Description: as §1, §2

Measured: IC50

Chain of human MEK1 (Q02750 whole entry S218E/S222E): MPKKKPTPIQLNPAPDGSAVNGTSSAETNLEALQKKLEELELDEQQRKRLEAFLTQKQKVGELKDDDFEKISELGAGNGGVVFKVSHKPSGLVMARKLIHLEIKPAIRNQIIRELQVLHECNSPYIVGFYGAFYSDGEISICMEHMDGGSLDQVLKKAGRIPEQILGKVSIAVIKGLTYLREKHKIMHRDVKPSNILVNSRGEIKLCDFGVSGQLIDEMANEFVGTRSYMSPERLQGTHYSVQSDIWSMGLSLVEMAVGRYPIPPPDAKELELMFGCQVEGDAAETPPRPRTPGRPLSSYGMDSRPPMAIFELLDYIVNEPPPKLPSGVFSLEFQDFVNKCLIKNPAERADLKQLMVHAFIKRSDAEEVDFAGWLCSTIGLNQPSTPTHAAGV

Nc1nnc(-c2c(Nc3ccc(I)cc3F)cncc2-c2ccccc2F)o1 [Example 58, [4-(5-Amino-[1,3,4]oxadiazol-2-yl)-5-(2-fluoro-phenyl)-pyridin-3-yl]-(2-fluoro-4-iodo-phenyl)-amine]
≤ 3000 nM: all assays above

Nc1nnc(-c2ccncc2Nc2ccc(Br)cc2Cl)o1 [Example 35, [4-(5-Amino-[1,3,4]oxadiazol-2-yl)-pyridin-3-yl]-(4-bromo-2-chloro-phenyl)-amine]
≤ 3000 nM: all assays above

Cc1noc(C)c1-c1ccncc1Nc1ccc(I)cc1F [Example 66]
≤ 3000 nM: human MEK1

CCOC(=O)Nc1nnc(-c2ccncc2Nc2ccc(I)cc2F)o1 [Example 26, {5-[3-(2-Fluoro-4-iodo-phenylamino)-pyridin-4-yl]-[1,3,4]oxadiazol-2-yl}-carbamic acid ethyl ester]
≤ 3000 nM: all assays above

Fc1cc(I)ccc1Nc1cnccc1-c1nnc(NCCN2CCOCC2)s1 [Example 12, (2-Fluoro-4-iodo-phenyl)-{4-[5-(2-morpholin-4-yl-ethylamino)-[1,3,4]thiadiazol-2-yl]-pyridin-3-yl}-amine]
≤ 3000 nM: all assays above

O=c1[nH]nc(-c2ccncc2Nc2ccc(I)cc2F)[nH]1 [Example 4, 5-[3-(2-Fluoro-4-iodo-phenylamino)-pyridin-4-yl]-2,4-dihydro-[1,2,4]triazol-3-one]
≤ 3000 nM: all assays above

Fc1cc(I)ccc1Nc1cnccc1-c1nnc(N2CCOCC2)o1 [Example 6, (2-Fluoro-4-iodo-phenyl)-[4-(5-morpholin-4-yl-[1,3,4]oxadiazol-2-yl)-pyridin-3-yl]-amine]
≤ 3000 nM: all assays above

Nc1nnc(-c2ccncc2Nc2ccc(I)cc2Cl)o1 [Example 24, [4-(5-Amino-[1,3,4]oxadiazol-2-yl)-pyridin-3-yl]-(2-chloro-4-iodo-phenyl)-amine]
≤ 3000 nM: all assays above

Fc1cc(I)ccc1Nc1cnccc1-c1nnc(NCCCN2CCOCC2)o1 [Example 19, (2-Fluoro-4-iodo-phenyl)-{4-[5-(3-morpholin-4-yl-propylamino)-[1,3,4]oxadiazol-2-yl]-pyridin-3-yl}-amine]
≤ 3000 nM: all assays above

CCOC(=O)C(=O)Nc1nnc(-c2ccncc2Nc2ccc(I)cc2F)o1 [Example 15, N-{5-[3-(2-Fluoro-4-iodo-phenylamino)-pyridin-4-yl]-[1,3,4]oxadiazol-2-yl}-oxalamic acid ethyl ester]
≤ 3000 nM: all assays above

Cn1c(-c2ccncc2Nc2ccc(I)cc2F)n[nH]c1=S [Example 8, 5-[3-(2-Fluoro-4-iodo-phenylamino)-pyridin-4-yl]-4-methyl-2,4-dihydro-[1,2,4]triazole-3-thione]
≤ 3000 nM: all assays above

C#Cc1cc(-c2nnc(N)o2)c(Nc2ccc(I)cc2F)cn1 [Example 28, [4-(5-Amino-[1,3,4]oxadiazol-2-yl)-6-ethynyl-pyridin-3-yl]-(2-fluoro-4-iodo-phenyl)-amine]
≤ 3000 nM: human MEK1

Fc1cc(I)ccc1Nc1cnccc1-c1nnc(NCC2CCCO2)o1 (stereo not drawn) [Example 49, (2-Fluoro-4-iodo-phenyl)-(4-{5-[(tetrahydro-furan-2-ylmethyl)-amino]-[1,3,4]oxadiazol-2-yl}-pyridin-3-yl)-amine]
≤ 3000 nM: all assays above

COc1ccc(Nc2cnccc2-c2nnc(N)o2)c(F)c1 [Example 25, [4-(5-Amino-[1,3,4]oxadiazol-2-yl)-pyridin-3-yl]-(2-fluoro-4-methoxy-phenyl)-amine]
≤ 3000 nM: all assays above

Cc1cc(I)ccc1Nc1cnccc1-c1nnc(N)[nH]1 [Example 33, [4-(5-Amino-4H-[1,2,4]triazol-3-yl)-pyridin-3-yl]-(4-iodo-2-methyl-phenyl)-amine]
≤ 3000 nM: all assays above

Fc1cc(I)ccc1Nc1cnccc1-c1nnc(NCC2CCCO2)s1 (stereo not drawn) [Example 50, (2-Fluoro-4-iodo-phenyl)-(4-{5-[(tetrahydro-furan-2-ylmethyl)-amino]-[1,3,4]thiadiazol-2-yl}-pyridin-3-yl)-amine]
≤ 3000 nM: all assays above

Fc1cc(I)ccc1Nc1cnccc1-c1nnc(NCCN2CCCCC2)o1 [Example 18, (2-Fluoro-4-iodo-phenyl)-{4-[5-(2-piperidin-1-yl-ethylamino)-[1,3,4]oxadiazol-2-yl]-pyridin-3-yl}-amine]
≤ 3000 nM: all assays above

Fc1cc(I)ccc1Nc1cnccc1-c1cn[nH]c1 [Example 65, (2-Fluoro-4-iodo-phenyl)-[4-(1H-pyrazol-4-yl)-pyridin-3-yl]-amine]
≤ 3000 nM: all assays above

CC1(C)OCC(CNc2nnc(-c3ccncc3Nc3ccc(I)cc3F)o2)O1 (stereo not drawn) [Example 10, (4-{5-[(2,2-Dimethyl-[1,3]dioxolan-4-ylmethyl)-amino]-[1,3,4]oxadiazol-2-yl}-pyridin-3-yl)-(2-fluoro-4-iodo-phenyl)-amine]
≤ 3000 nM: all assays above

Cc1nnc(-c2ccncc2Nc2ccc(I)cc2F)o1 [Example 13, (2-Fluoro-4-iodo-phenyl)-[4-(5-methyl-[1,3,4]oxadiazol-2-yl)-pyridin-3-yl]-amine]
≤ 3000 nM: all assays above

Nc1nnc(-c2c(Nc3ccc(I)cc3F)cncc2-c2ccccc2Cl)o1 [Example 57, [4-(5-Amino-[1,3,4]oxadiazol-2-yl)-5-(2-chloro-phenyl)-pyridin-3-yl]-(2-fluoro-4-iodo-phenyl)-amine]
≤ 3000 nM: all assays above

Fc1cc(I)ccc1Nc1cnccc1-c1nnco1 [Example 40, (2-Fluoro-4-iodo-phenyl)-(4-[1,3,4]oxadiazol-2-yl-pyridin-3-yl)-amine]
≤ 3000 nM: all assays above

CCOC(=O)c1noc(-c2ccncc2Nc2ccc(I)cc2F)n1 [Example 36, 5-[3-(2-Fluoro-4-iodo-phenylamino)-pyridin-4-yl]-[1,2,4]oxadiazole-3-carboxylic acid ethyl ester]
≤ 3000 nM: human MEK1

CCOc1nnc(-c2ccncc2Nc2ccc(I)cc2F)[nH]1 [Example 30, [4-(5-Ethoxy-4H-[1,2,4]triazol-3-yl)-pyridin-3-yl]-(2-fluoro-4-iodo-phenyl)-amine]
≤ 3000 nM: human MEK1
